“Also recorded” adds a separate entry of the source.
Legend:
[1] = Urine concentrations in humans after a single oral dose; assay type: in vivo, human; conditions: see Example 2
conscious SCI rats [2] = conditions: Beauval et al., 2015; cited from earlier work
conscious BOO rats [3] = assay: Cystometric parameters in conscious bladder outlet obstruction (BOO) rats; assay type: in vivo, rat; conditions: i.g.; for BC, effect versus basal: Cpd (IA) 30 mg/kg, mirabegron 10 mg/kg
Experimental: Test substance effects were compared to those of the reference substance, mirabegron, marketed for overactive bladder.
• At W-6, a partial ligature of the urethra was performed. • At W-6, during 3 consecutive days, rats were treated daily with gentamycin and Ketofen® The bladder was emptied manually once a day. • From W-6 to W-1 animals were monitored and weighed once per week. • At W0 (D-2), catheters were implanted under isoflurane anesthesia. • At D0, cystometry was performed.
Appropriate amount of Cpd (IA) was weighed and dissolved in vehicle to obtain the dosing solution with the target concentration of 3 mg/mL (as free base). […]
[…] Mirabegron (from Kemprotec) was prepared fresh on the day of administration at a final concentration of 2 mg/mL (free base form). Appropriate mass of mirabegron was weighed and dissolved in vehicle (0.5% MC) at room temperature.

conscious SCI rats [4] = assay: Cystometric parameters in conscious spinal cord injury (SCI) rats; assay type: in vivo, rat; conditions: i.g., Cpd (IA) 30 mg/kg, mirabegron 10 mg/kg
Experimental: Test substance effects were compared to those of the reference substance, the β3-adrenoceptor agonist mirabegron, marketed for overactive bladder.
• At W-5, spinal cord injury was performed at T8 level as described below. • Over W-5, rats were treated daily with gentamicin. • Over W-5 and W-4, bladder was emptied manually once a day. • From W-5 to W0, animals were weighed once per week. • At D-2 (W0), implantation of catheters was performed under isoflurane anaesthesia as described below. • At D0 (W0), cystometry was performed
Rats were anesthetized with isoflurane (3%). Body temperature was constantly maintained at 37° C. throughout the surgery by placing animals on a thermo-regulated hot plate. A laminectomy was performed and the spinal cord was sectioned with microscissors at T8 level. Care was taken to assure that the section was complete by verifying that a slight retraction of the two segments occurred. Then the muscle was sutured and the skin fixed with staples. The scar was cleaned by Vetedine. For the Sham group, the same surgery was performed without section of the spinal cord.
The urinary bladder was squeezed once a day for 14 days with a gentle massage of the abdomen until restoration of the micturition reflex. In addition, they were administered intramuscularly daily for one week with gentamicin (2 mg/mL, 0.2 ml/rat). Animals were euthanized if they reached humane endpoints: weight loss of greater than 20% of their body weight and/or abnormal behavioral changes indicating presence of pain and distress (prostration, self-mutilation, aggressiveness).
Rats were anesthetized with isoflurane (3%). Body temperature was constantly maintained at 37° C. throughout the surgery by placing animals on a thermo-regulated hot plate. A polyethylene catheter (0.58 and 0.96 mm of inner and outer diameters, respectively) was implanted in the bladder through the dome for intravesical pressure recording. Another catheter (0.58 and 0.96 mm of inner and outer diameters, respectively) was implanted in the stomach for intra-gastric administration. Catheters were exteriorized at the scapular level. After surgery, each rat was housed individually up to the end of the protocol with free access to food and water.
Animals were held under partial restraint in a restraining device. Saline was infused into the bladder at a constant flow rate of 2 or 6 mL/h for sham or SCI rats, respectively. After at least 45 min (3 complete micturition cycles corresponding to basal values), test substances were administered by intra-gastric route. Then, intravesical pressure was recorded for 90 min.
The following cystometric parameters were analyzed (see FIG. 10): • Amplitude of micturition (AM, mmHg). • Threshold pressure (ThP, mmHg). • Intercontraction interval (ICI, sec): time between basal pressure and ThP. ICI was not presented due to different infusion rate in sham and SCI rats. ICI was only analyzed to calculate the bladder capacity. • Bladder capacity (BC, mL) BC=ICI×infusion rate. • Amplitude of non voiding contractions (NVC, mmHg) • Frequency of NVC (number per min).
For each cystometric parameter and for each time period, the comparisons were performed as described below: • Basal values of each cystometric parameter of Sham/Vehicle and SCI/Vehicle groups were compared using unpaired student t test • Basal values of each cystometric parameter of all SCI groups were compared using one-way ANOVA or Kruskal-Wallis test • The 3 interval periods of 30 min post treatment of each cystometric parameter within the same group were compared to corresponding basal values using one-way ANOVA with repeated measures or Friedman test followed by Dunnett's or Dunn's post-test, respectively. • The 3 interval periods of 30 min post treatment of each cystometric parameter were compared between all SCI groups using one-way ANOVA or Kruskal Wallis test followed by Holm-Sidak's or Dunn's post-test versus Vehicle, respectively.

conscious BOO rats [5] = conditions: Gillespy et al., 2012; cited from earlier work
[6] = tested on: rhythmic bladder contractions (RBC) in anesthetized female rats; assay: Isovolumetric model: rhythmic bladder contractions (RBC), cystometry; assay type: in vivo, rat; conditions: for RBC amplitude, basal / RBC frequency, basal: basal period −30/0 min before i.v. administration, group mean
Excerpt: In rats, under isovolumetric condition, bladder distension induced rhythmic bladder contractions (RBC) (Aizawa et al, (2015) Effects of L-arginine, mirabegron, and oxybutynin on the primary bladder afferent nerve activities synchronized with reflexic, rhythmic bladder contractions in the rat. Neurourology & Urodynamics 34:368-374). This isovolumetric model allows the evaluation of compound on RBC. It is a closed system where the bladder is slowly infused through a urethral catheter with saline until the occurrence of spontaneous rhythmic bladder contractions.
Test substance effects were compared to that of the reference substance, tolterodine, an […], marketed for overactive bladder in humans.
Protocol: • Animals were anesthetized with urethane (i.p.). • Ureters were ligated and sectioned close to the kidneys. • Intravesical catheter was inserted into the bladder though the urinary meatus. • Urinary meatus was closed. • A catheter was inserted into the jugular vein for compound administration. • Bladder was filled with saline until the occurrence of RBC. • After 30 min basal period, compounds were administered as described below. • The effect of the test substances was followed by 1-hour post administration.
Rats were anesthetized with an intraperitoneal administration of urethane (1 g/kg). The ureters were ligated and sectioned close to the kidneys. A catheter (0.30 and 0.70 mm of inner and outer diameters, respectively) was inserted through the urinary meatus into the bladder before urethral ligature. Another catheter (0.58 and 0.96 mm of inner and outer diameters, respectively) was inserted into the jugular vein for intravenous (i.v.) administration.
For all group, animals were treated by i.v. route (1 mL/kg) (slow bolus) after the basal period.
The vesical catheter was connected via a T-tube to a strain gauge (to measure intra-vesical pressure) and to a syringe. Isovolumetric bladder contractions were induced by stepwise injections of physiological saline at room temperature (100 μL every 5 min) until stable RBC occurred. Vesical pressure was continuously recorded. After a 30 min control period (basal values), substances or vehicle were i.v. administered. The effects of substances were followed during 60 min after administration. At the end of the experiments, animals were sacrificed by cervical dislocation.
The following parameters were analyzed: • Amplitude of RBC (mmHg) • Frequency of RBC (number/30 min) • Time of inhibition (sec)
The % variation from the basal values were calculated for RBC frequency and amplitude.
Statistical analysis and graphs were performed using GraphPad Prism® (GraphPad Software Inc., La Jolla, CA, USA). A p value <0.05 was accepted for statistical significance.

[7] = 0/60 min after i.v., Cpd (IA) 3 mg/kg (n=8), tolterodine 1 mg/kg, mean
[8] = 0/60 min after i.v., Cpd (IA) 3 mg/kg, tolterodine 1 mg/kg, mean
[9] = 0/60 min after i.v., Cpd (IA) 3 mg/kg, tolterodine 1 mg/kg, mean, listed as Tolterodine
[10] = i.v., Cpd (IA) 3 mg/kg, tolterodine 1 mg/kg, vs basal
[11] = i.v., Cpd (IA) 3 mg/kg, tolterodine 1 mg/kg, vs vehicle

O=C(O)c1nc2ccccc2n([C@H]2C[C@H]3CCC[C@@H](C2)N3C2CC3CCCC(C3)C2)c1=O (single isomer, unassigned) [compound of formula (I′)]
route of excretion [1]: primarily excreted from the urine largely unchanged

C[C@H](Cc1ccc2c(c1)OC(C(=O)[O-])(C(=O)[O-])O2)NC[C@H](O)c1cccc(Cl)c1.[Na+].[Na+] [CL-316,243]
bladder capacity (conscious SCI rats [2]): significantly increase | frequency of NVC (conscious SCI rats [2]): reduce

O=C(O)c1nc2ccccc2n(C2CC3CCCC(C2)N3C2CC3CCCC(C3)C2)c1=O (stereo not shown) [compound of formula (I)]
route of excretion [1]: primarily excreted from the urine largely unchanged

Nc1nc(CC(=O)Nc2ccc(CCNC[C@H](O)c3ccccc3)cc2)cs1 [mirabegron, reference compound]
AM (mmHg or % variation), effect versus vehicle (conscious BOO rats [3]; 0-90 min entire period): not significantly modified | AM, effect versus basal (conscious BOO rats [3]; 0-90 min entire period): did not significantly modify | BC expressed in % variation from basal, effect versus vehicle (conscious BOO rats [3]; 0-90 min entire period): not significantly modified | BC expressed in mL, effect versus vehicle (conscious BOO rats [3]; 0-90 min entire period): no significant difference | NVC amplitude expressed in % variation from basal, effect versus vehicle (conscious BOO rats [3]; 0-90 min entire period): significantly reduced | NVC amplitude expressed in mmHg, effect versus vehicle (conscious BOO rats [3]; 0-90 min entire period): not significantly modified | NVC amplitude, effect versus basal (conscious BOO rats [3]; 0-90 min entire period): did not modify | NVC frequency (NVC/min or % variation), effect versus vehicle (conscious BOO rats [3]; 0-90 min entire period): not significantly modified | NVC frequency, effect versus basal (conscious BOO rats [3]; 0-90 min entire period): significantly decreased | ThP expressed in % variation from basal, effect versus vehicle (conscious BOO rats [3]; 0-90 min entire period): no significant effect | ThP expressed in mmHg, effect versus vehicle (conscious BOO rats [3]; 0-90 min entire period): not significantly modified | ThP, effect versus basal (conscious BOO rats [3]; 0-90 min entire period): did not modify | AM (mmHg or % variation), effect versus vehicle (conscious BOO rats [3]; 60-90 min interval period): no effect | AM, effect versus basal (conscious BOO rats [3]; 60-90 min interval period): did not significantly modify | BC expressed in % variation from basal, effect versus vehicle (conscious BOO rats [3]; 60-90 min interval period): no significant difference | BC expressed in mL, effect versus vehicle (conscious BOO rats [3]; 60-90 min interval period): no significant difference | NVC amplitude expressed in % variation from basal, effect versus vehicle (conscious BOO rats [3]; 60-90 min interval period): significantly decreased | NVC amplitude expressed in mmHg, effect versus vehicle (conscious BOO rats [3]; 60-90 min interval period): not significantly modified | NVC amplitude, effect versus basal (conscious BOO rats [3]; 60-90 min interval period): significantly reduced | NVC frequency (NVC/min or % variation), effect versus vehicle (conscious BOO rats [3]; 60-90 min interval period): unaffected | NVC frequency, effect versus basal (conscious BOO rats [3]; 60-90 min interval period): significantly decreased | ThP expressed in % variation from basal, effect versus vehicle (conscious BOO rats [3]; 60-90 min interval period): significantly decreased | ThP expressed in mmHg, effect versus vehicle (conscious BOO rats [3]; 60-90 min interval period): not significantly modified | ThP, effect versus basal (conscious BOO rats [3]; 60-90 min interval period): without effect | BC, effect versus basal (conscious BOO rats [3]; 0-90 min entire period): did not significantly modify | BC, effect versus basal (conscious BOO rats [3]; 60-90 min interval period): significantly increased | AM (amplitude of micturition), effect versus basal (conscious SCI rats [4]): did not significantly modify | AM (mmHg and % variation), effect versus vehicle (conscious SCI rats [4]): not significantly modified | BC expressed in % variation from basal, effect versus vehicle (conscious SCI rats [4]): not significantly modified | BC expressed in mL, effect versus vehicle (conscious SCI rats [4]): no significant difference | NVC amplitude (mmHg or % variation), effect versus vehicle (conscious SCI rats [4]): not significantly modified | NVC amplitude, effect versus basal (conscious SCI rats [4]): did not significantly modified | NVC frequency (NVC/min and % variation), effect versus vehicle (conscious SCI rats [4]): not significantly modified | NVC frequency, effect versus basal (conscious SCI rats [4]): significantly decreased NVC frequency for the 30-60 and 60-90 min interval periods; also recorded: slightly but significantly decreased | ThP (mmHg and % variation), effect versus vehicle (conscious SCI rats [4]): not significantly modified | ThP (threshold pressure), effect versus basal (conscious SCI rats [4]): significantly decreased ThP for the 60-90 min post-administration interval period | BC (bladder capacity), effect versus basal (conscious SCI rats [4]; 30-min interval periods to 90 min): did not significantly modify | frequency of NVC (conscious BOO rats [5]): reduces

Cc1ccc(O)c([C@H](CCN(C(C)C)C(C)C)c2ccccc2)c1 [tolterodine]
RBC amplitude, % variation from basal [6, 7]: −30.83±5.24% | RBC amplitude, treated period [6, 7]: 18.56 mmHg | RBC amplitude, % variation from basal ([6]; 0/60 min after i.v., Cpd (IA) 3 mg/kg (n=8), tolterodine 1 mg/kg, mean, listed as Tolterodine): −30.83% | RBC frequency, % variation from basal [6, 8]: −33.93±10.93% | RBC frequency, treated period [6, 8]: 15.30±2.72 nb of RBC/30 min | RBC frequency, % variation from basal [6, 9]: −33.93% | RBC frequency, treated period [6, 9]: 15.30 nb of RBC/30 min | Inhibition time ([6]; after i.v., Cpd (IA) 3 mg/kg, tolterodine 1 mg/kg, mean): 87.04 s | RBC amplitude, basal [6]: 27.22±2.03 mmHg | RBC frequency, basal [6]: 23.00±0.87 nb of RBC/30 min | RBC amplitude, basal ([6]; listed as Tolterodine): 27.22 mmHg | RBC frequency, basal ([6]; listed as Tolterodine): 23.00 nb of RBC/30 min | bladder afferent activity ([6]; conclusion of Example 1): no effect | bladder efferent activity ([6]; conclusion of Example 1): effectively inhibited | RBC amplitude, effect versus basal [6, 10]: significantly reduced | RBC frequency, effect versus basal [6, 10]: significantly decreased | RBC amplitude (% variation), effect versus vehicle [6, 11]: significantly reduced | RBC frequency (% variation), effect versus vehicle [6, 11]: did not significantly modify | time of inhibition, effect versus vehicle [6, 11]: no significant difference

From US20250381180A1, “METHODS OF TREATING OR PREVENTING OVERACTIVE BLADDER SYNDROME” (Purdue Pharma L.P., priority 2022, published 2025)
